Here are results for nine molecules from patent US4182887A, “3-Amino-4-phenyl-1H-pyrazolo[3,4-b]pyridines and salts thereof” (Boehringer Ingelheim GmbH, priority 1976, dated 1980).

The test system of series [1] is thrombocyte aggregation in platelet-rich plasma. The series is described as follows: Determination of effect on platelet aggregation by the method of Born and Cross (collagen-induced thrombocyte aggregation). The note with it: 10 min, platelet-rich plasma of healthy human donors, 10 min incubation at 37° C., read-out: ED50 (dose leading to a 50% inhibition of aggregation compared with the control group). It is filed as cell-based. On the procedure: 1. Determination of effect on platelet aggregation by the method of Born and Cross, J. Physiol. 170, 397 (1964):
The thrombocyte aggregation was measured in the platelet-rich plasma of healthy human donors. The course of change of the optical density of the platelet suspension was measured and recorded photometrically after the addition of commercial collagen containing 1 mg of collagen fibrils per ml. From the angle of inclination of the density curve, the rate of aggregation was estimated (Vmax). The optical density (O.D.) was taken as the point on the curve where the most light was transmitted.
As small doses of collagen as possible were chosen, but sufficient to give irreversible aggregation. To provoke maximum aggregation, about 0.01 ml of the collagen solution was added to 1 ml of platelet-rich plasma.
The test compounds were incubated at 37° C. for 10 minutes with the plasma before aggregation was provoked. The compounds were dissolved with a small quantity of hydrochloric acid or dimethyl formamide, and the solution was diluted to the desired final concentration with distilled water.
The dose leading to a 50% inhibition of aggregation compared with the control group (E D50) was determined.

Series [2] is described as follows: Acute toxicity in white mice after oral application of a single dose. The note with it: mouse, in vivo, observation time 14 days. In kind it is in vivo. On the procedure:
(§1) The acute toxicity of the compounds was determined in white mice (observation time: 14 days) after oral application of a single dose: […]

For the next series, the system named is white mice. Described as above. In kind it is in vivo. The note with it: observation time 14 days, at the dose given in the same line. How it is done: as §1

Some results are limits rather than exact numbers.

With `Nc1n[nH]c2nc(N3CCOCC3)cc(-c3ccccc3)c12` [A, 3-Amino-6-morpholino-4-phenyl-1H-pyrazolo[3,4-b]pyridine], in series [1], the IC50 worked out at 1000 nM. In addition, in series [2], the LD50 (in general, the dose expected to kill half of the subjects tested) at 336 h was more than 250 mg/kg. The “animals died (mortality in acute toxicity test)” value (shortened to “animals died”) with white mice was 0 out of 10.
Consider `Nc1n[nH]c2nc(N3CCSCC3)cc(-c3ccccc3)c12` [B, 3-Amino-4-phenyl-6-thiomorpholino-1H-pyrazolo[3,4-b]pyridine], for which, in series [1], the IC50 worked out at 40 nM. In series [2], the LD50 at 336 h is more than 250 mg/kg. Also, in the series on white mice, the “animals died” value is reported as 0 out of 10.
For `Nc1n[nH]c2nc(N3CCCCC3)cc(-c3ccccc3)c12` [C, 3-Amino-4-phenyl-6-piperidino-1H-pyrazolo[3,4-b]pyridine], the IC50 in series [1] was 400 nM. In series [2], the LD50 at 336 h was more than 250 mg/kg. Further, in the series on white mice, the “animals died” value was 0 out of 10.
The corresponding values for `Nc1n[nH]c2nc(N3CCCCCC3)cc(-c3ccccc3)c12` [Compound E, 3-Amino-6-hexamethyleneimino-4-phenyl-1H-pyrazolo[3,4-b]pyridine] are 40 nM, more than 5000 mg/kg and 3 out of 10.
On to `CC1CCCN(c2cc(-c3ccccc3)c3c(N)n[nH]c3n2)C1` (stereo not shown) [D, 3-Amino-6-(3-methyl-piperidino)-4-phenyl-1H-pyrazolo[3,4-b]pyridine], for which, in series [1], the IC50 came to 300 nM. The molecule also showed an LD50 at 336 h in series [2] of more than 250 mg/kg. In the series with white mice, the “animals died” value is recorded as 0 out of 10.
As for `CCN(CC)c1cc(-c2ccccc2)c2c(N)n[nH]c2n1` [F, 3-Amino-6-diethylamino-4-phenyl-1H-pyrazolo[3,4-b]pyridine], the IC50 in series [1] stood at 300 nM. Further, the LD50 at 336 h in series [2] is more than 1500 mg/kg. The “animals died” value in the series with white mice is on record as 0 out of 10.
The corresponding values for `COc1ccc(-c2cc(N3CCCCC3)nc3[nH]nc(N)c23)cc1` [G, 3-Amino-4-(4'-methoxy-phenyl)-6-piperidino-1H-pyrazolo [3,4-b]pyridine] are 1000 nM, more than 1500 mg/kg and 0 out of 10.
For `Nc1n[nH]c2nc(N3CCCCCC3)cc(-c3ccc(F)cc3)c12` [H, 3-Amino-4-(4'-fluoro-phenyl)-6-hexamethyleneimino-1H-pyrazolo[3,4-b]pyridine], the IC50 in series [1] was 300 nM.
On to `Nc1cc(-c2ccccc2)c2c(N)n[nH]c2n1` [I, 3,6-Diamino-4-phenyl-1H-pyrazolo[3,4-b]pyridine, reference compound], for which the IC50 in series [1] amounted to 100000 nM. In addition, in series [2], the LD50 at 336 h was more than 1500 mg/kg. The “animals died” value with white mice was 0 out of 10.
